The source made the active and inactive calls. The calls are words filed in the database; no cut-off is given here.
Columns and labels:
[1] = target: T1, Protein fem-1 homolog B/Histone deacetylase 1 (Homo sapiens, UniProt Q13547+Q9UK73); test: PROTAC activity at FEM1B/HDAC1 in human MM1.S cell lysate assessed as neddylation-dependent protein degradation at 1 uM in presence of MLN4924 measured after 24 hrs by Western immunoassay; assay type: subcellular
[2] = target: Protein fem-1 homolog B/Histone deacetylase 8 (Homo sapiens) (UniProt Q9BY41+Q9UK73); test: PROTAC activity at FEM1B/HDAC8 in human MM1.S cell lysate assessed as protein degradation at 1 uM measured after 24 hrs by Western immunoassay; assay type: subcellular
MM1.S [3] = test: Induction of cell cycle arrest in human MM1.s cells assessed as increase in cells at Sub-G1 phase at 10 uM measured after 48 hrs by propidium iodide based flow cytometry; assay type: functional
[4] = target: T1, Protein fem-1 homolog B/Histone deacetylase 1; test: PROTAC activity at FEM1B/HDAC1 in human MDA-MB-231 cell lysate assessed as protein degradation at 10 uM measured after 24 hrs by Western immunoassay relative to control; assay type: subcellular
MM1.S [5] = test: Induction of apoptosis in human MM1.S cells assessed as increase in early apoptotic cells at 10 uM measured after 48 hrs by annexin V-FITC/PI staining based assay; assay type: functional, cell-based
[6] = target: Protein fem-1 homolog B/Histone deacetylase 2 (Homo sapiens) (UniProt Q92769+Q9UK73); test: PROTAC activity at FEM1B/HDAC2 in human MM1.S cell lysate assessed as protein degradation at 1 uM measured after 24 hrs by Western immunoassay; assay type: subcellular
[7] = target: T1, Protein fem-1 homolog B/Histone deacetylase 1; test: PROTAC activity at FEM1B/HDAC1 in human U-87 MG cell lysate assessed as protein degradation at 10 uM measured after 24 hrs by Western immunoassay relative to control; assay type: subcellular
[8] = target: Protein fem-1 homolog B//Paired amphipathic helix protein Sin3a (Homo sapiens) (UniProt Q9UK73+Q96ST3); test: PROTAC activity at FEM1B/SIN3A in human MM1.S cell lysate assessed as protein degradation at 0.5 uM measured after 6 hrs by global quantitative proteomics analysis; assay type: subcellular
[9] = target: T1, Protein fem-1 homolog B/Histone deacetylase 1; test: PROTAC activity at FEM1B/HDAC1 in human MM1.S cell lysate assessed as protein degradation at 1 uM measured after 24 hrs by Western immunoassay; assay type: subcellular
[10] = target: Protein fem-1 homolog B/REST corepressor 1 (Homo sapiens) (UniProt Q9UKL0+Q9UK73); test: PROTAC activity at FEM1B/RCOR1 in human MM1.S cell lysate assessed as protein degradation at 0.5 uM measured after 6 hrs by global quantitative proteomics analysis; assay type: subcellular
[11] = target: Protein fem-1 homolog B/Histone deacetylase 3 (Homo sapiens) (UniProt O15379+Q9UK73); test: PROTAC activity at FEM1B/HDAC3 in human MM1.S cell lysate assessed as protein degradation at 1 uM measured after 24 hrs by Western immunoassay; assay type: subcellular
[12] = target: T1, Protein fem-1 homolog B/Histone deacetylase 1; test: PROTAC activity at FEM1B/HDAC1 in human MV4-11 cell lysate assessed as protein degradation at 10 uM measured after 24 hrs by Western immunoassay relative to control; assay type: subcellular
[13] = target: T1, Protein fem-1 homolog B/Histone deacetylase 1; test: PROTAC activity at FEM1B/HDAC1 in human MM1.S cell lysate assessed as neddylation-dependent protein degradation at 1 uM in presence of vorinostat measured after 24 hrs by Western immunoassay; assay type: subcellular
[14] = target: Protein fem-1 homolog B/REST corepressor 3 (Homo sapiens) (UniProt Q9P2K3+Q9UK73); test: PROTAC activity at FEM1B/RCOR3 in human MM1.S cell lysate assessed as protein degradation at 0.5 uM measured after 6 hrs by global quantitative proteomics analysis; assay type: subcellular
[15] = target: T1, Protein fem-1 homolog B/Histone deacetylase 1; test: PROTAC activity at FEM1B/HDAC1 in human MM.1S cell lysate assessed as maximal initial degradation at measured after 24 hrs by Western immunoassay relative to control; assay type: subcellular; conditions: MM1.S
[16] = target: Protein fem-1 homolog B//Mesoderm induction early response protein 1 (Homo sapiens) (UniProt Q9UK73+Q8N108); test: PROTAC activity at FEM1B/MIER1 in human MM1.S cell lysate assessed as protein degradation at 0.5 uM measured after 6 hrs by global quantitative proteomics analysis; assay type: subcellular
[17] = target: Protein fem-1 homolog B/Nuclear receptor corepressor 1 (Homo sapiens) (UniProt O75376+Q9UK73); test: PROTAC activity at FEM1B/NCOR1 in human MM1.S cell lysate assessed as protein degradation at 0.5 uM measured after 6 hrs by global quantitative proteomics analysis; assay type: subcellular
MM1.S [18] = test: Induction of cell cycle arrest in human MM1.S cells assessed as reduction in cells at […] phase at 10 uM measured after 48 hrs by propidium iodide based flow cytometry; assay type: functional
[19] = target: Protein fem-1 homolog B/Protein deacetylase HDAC6 (Homo sapiens) (UniProt Q9UBN7+Q9UK73); test: PROTAC activity at FEM1B/HDAC6 in human MM1.S cell lysate assessed as protein degradation at 1 uM measured after 24 hrs by Western immunoassay; assay type: subcellular
[20] = target: Protein fem-1 homolog B/Histone deacetylase 4 (Homo sapiens) (UniProt P56524+Q9UK73); test: PROTAC activity at FEM1B/HDAC4 in human MM1.S cell lysate assessed as protein degradation at 1 uM measured after 24 hrs by Western immunoassay; assay type: subcellular
MM1.S [21] = test: Induction of apoptosis in human MM1.S cells assessed as increase in late apoptotic cells at 10 uM measured after 48 hrs by annexin V-FITC/PI staining based assay; assay type: functional, cell-based
[22] = target: Protein fem-1 homolog B/Lysine-specific histone demethylase 1A (Homo sapiens) (UniProt O60341+Q9UK73); test: PROTAC activity at FEM1B/KDM1A (LSD1) in human MM1.S cell lysate assessed as protein degradation at 0.5 uM measured after 6 hrs by global quantitative proteomics analysis; assay type: subcellular
[23] = target: T1, Protein fem-1 homolog B/Histone deacetylase 1; test: PROTAC activity at FEM1B/HDAC1 in human MM1.S cell lysate assessed as initial degradation at 1 uM measured after 24 hrs by Western immunoassay; assay type: subcellular

T1 sequence (Q13547 whole entry, looked up): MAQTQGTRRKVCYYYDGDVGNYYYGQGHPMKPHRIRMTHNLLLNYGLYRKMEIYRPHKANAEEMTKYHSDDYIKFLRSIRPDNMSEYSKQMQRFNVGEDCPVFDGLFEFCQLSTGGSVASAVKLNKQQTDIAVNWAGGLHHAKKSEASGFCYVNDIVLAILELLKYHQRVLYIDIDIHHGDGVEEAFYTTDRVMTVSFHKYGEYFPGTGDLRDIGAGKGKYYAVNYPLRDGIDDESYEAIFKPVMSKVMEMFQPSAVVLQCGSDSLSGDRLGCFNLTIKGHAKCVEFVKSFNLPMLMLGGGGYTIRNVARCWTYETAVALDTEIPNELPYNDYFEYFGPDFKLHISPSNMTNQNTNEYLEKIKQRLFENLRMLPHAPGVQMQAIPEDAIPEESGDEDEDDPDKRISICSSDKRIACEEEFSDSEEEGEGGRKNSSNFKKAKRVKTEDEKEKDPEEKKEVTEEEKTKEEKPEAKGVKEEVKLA
T1 sequence (Q9UK73 whole entry, looked up): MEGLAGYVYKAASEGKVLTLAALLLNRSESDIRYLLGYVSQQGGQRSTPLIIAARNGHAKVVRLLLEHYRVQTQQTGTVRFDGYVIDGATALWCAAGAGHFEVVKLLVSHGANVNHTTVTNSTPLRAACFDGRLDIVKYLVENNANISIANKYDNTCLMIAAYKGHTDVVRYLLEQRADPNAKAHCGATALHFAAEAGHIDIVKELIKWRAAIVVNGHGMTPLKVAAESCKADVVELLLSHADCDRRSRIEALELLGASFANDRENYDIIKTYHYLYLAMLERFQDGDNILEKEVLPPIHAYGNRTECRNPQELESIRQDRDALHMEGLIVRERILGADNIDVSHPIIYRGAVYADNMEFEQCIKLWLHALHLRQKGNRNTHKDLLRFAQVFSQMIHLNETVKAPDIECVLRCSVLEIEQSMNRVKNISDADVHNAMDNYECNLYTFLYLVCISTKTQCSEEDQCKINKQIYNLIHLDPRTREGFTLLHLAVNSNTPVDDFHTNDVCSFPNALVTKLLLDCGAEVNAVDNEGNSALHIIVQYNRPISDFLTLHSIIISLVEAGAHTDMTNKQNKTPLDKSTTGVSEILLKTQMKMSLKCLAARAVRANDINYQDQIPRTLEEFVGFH
Sequence of Protein fem-1 homolog B/Histone deacetylase 2 (Homo sapiens) (Q92769 whole entry, looked up): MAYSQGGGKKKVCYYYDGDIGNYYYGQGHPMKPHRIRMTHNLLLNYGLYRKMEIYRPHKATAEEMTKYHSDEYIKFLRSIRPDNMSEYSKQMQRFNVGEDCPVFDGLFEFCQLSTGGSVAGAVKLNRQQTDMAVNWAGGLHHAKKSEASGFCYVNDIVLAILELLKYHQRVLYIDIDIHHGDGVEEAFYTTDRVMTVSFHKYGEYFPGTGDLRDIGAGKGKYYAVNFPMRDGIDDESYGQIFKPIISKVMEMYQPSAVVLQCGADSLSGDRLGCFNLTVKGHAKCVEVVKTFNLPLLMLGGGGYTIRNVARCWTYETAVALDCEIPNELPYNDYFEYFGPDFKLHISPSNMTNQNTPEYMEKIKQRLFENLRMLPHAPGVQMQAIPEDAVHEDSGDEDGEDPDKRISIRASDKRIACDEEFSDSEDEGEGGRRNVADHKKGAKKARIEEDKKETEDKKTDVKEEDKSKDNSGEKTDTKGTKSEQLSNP
Sequence of Protein fem-1 homolog B/Histone deacetylase 2 (Homo sapiens) (Q9UK73 whole entry, looked up): as the sequence (Q9UK73 whole entry, looked up) above
Sequence of Protein fem-1 homolog B/Lysine-specific histone demethylase 1A (Homo sapiens) (Q9UK73 whole entry, looked up, other chains not shown): as the sequence (Q9UK73 whole entry, looked up) above
Sequence of Protein fem-1 homolog B/REST corepressor 3 (Homo sapiens) (Q9UK73 whole entry, looked up, other chains not shown): as the sequence (Q9UK73 whole entry, looked up) above
Sequence of Protein fem-1 homolog B/REST corepressor 1 (Homo sapiens) (Q9UK73 whole entry, looked up): as above
Sequence of Protein fem-1 homolog B/REST corepressor 1 (Homo sapiens) (Q9UKL0 whole entry, looked up): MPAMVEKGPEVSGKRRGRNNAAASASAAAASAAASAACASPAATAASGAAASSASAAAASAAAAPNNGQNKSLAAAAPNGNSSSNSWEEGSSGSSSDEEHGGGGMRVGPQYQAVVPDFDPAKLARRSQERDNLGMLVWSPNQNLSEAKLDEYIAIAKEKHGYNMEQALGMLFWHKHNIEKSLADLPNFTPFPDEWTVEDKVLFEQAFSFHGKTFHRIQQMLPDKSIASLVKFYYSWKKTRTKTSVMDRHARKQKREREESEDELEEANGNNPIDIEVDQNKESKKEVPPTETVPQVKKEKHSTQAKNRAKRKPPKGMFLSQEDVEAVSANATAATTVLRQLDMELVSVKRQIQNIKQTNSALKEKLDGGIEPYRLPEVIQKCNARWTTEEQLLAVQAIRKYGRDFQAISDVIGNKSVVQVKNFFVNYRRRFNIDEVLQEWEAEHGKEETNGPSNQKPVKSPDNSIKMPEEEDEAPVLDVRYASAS

Activity [1]: inactive | Activity [2]: inactive | Activity [4]: 53% | Activity [6]: Active | Activity [7]: 75% | Activity [8]: Active | Activity [9]: Active | Activity [10]: Active | Activity [11]: Active | Activity [12]: 87% | Activity [13]: inactive | Activity [14]: Active | Emax [15]: 85.2% | Activity [16]: Active | Activity [17]: Active | Activity [19]: inactive | Activity [20]: inactive | Activity [22]: Active | Activity [23]: 62.3%
Compound: N#CCCN(C(=O)CCl)c1ccc2c(c1)OCCN2CC(=O)NCC(=O)Nc1ccc(C(=O)NCCCCCCC(=O)NO)cc1
Activity (MM1.S [3]): Active | Activity (MM1.S [5]): Active | Activity (MM1.S [18]): Active | Activity (MM1.S [21]): Active

Source: ChEMBL document CHEMBL6087488, “Development of the First-in-Class FEM1B-Recruiting Histone Deacetylase Degraders” (J Med Chem, 2025)
